Results as given in patent US12545637B2, “Extrahepatic targeted cationic lipid compound with high efficiency and low toxicity and its composition” (BEIJING YOUCARE KECHUANG PHARMACEUTICAL TECHNOLOGY CO., LTD., priority 2023, dated 2026).
Several values for one entry are separate records, joined by “and”; a condition that tells them apart may be missing. Equal values may be shown once.

Tests used:
293T cells [1] = experiment: Cell transfection test of LNP formulation of eGFP-mRNA (optimization of preparation conditions); format: cell-based
Method: The cationic lipid compound YK-407 synthesized in Example 1 was dissolved in ethanol with DSPC (AVT (Shanghai) Pharmaceutical Technology Co., Ltd.), cholesterol (AVT (Shanghai) Pharmaceutical Technology Co., Ltd.) and DMG-PEG2000 according to a molar ratio of 49:10:39.5:1.5, respectively, to prepare an ethanol lipid solution. The ethanol lipid solution was quickly added to citrate buffer (pH=4-5) by ethanol injection method, and vortexed for 30s for later use. eGFP-mRNA was diluted in citrate buffer (pH=4-5) to give an aqueous mRNA solution. A certain volume of liposome solution and mRNA aqueous solution were used to prepare liposomes at weight ratios of total lipids to mRNA of 5:1, 10:1, 15:1, 20:1, 30:1 and 35:1, respectively. The mixtures were sonicated at 25° C. for 15 min (with an ultrasonic frequency of 40 kHz and an ultrasonic power of 800 W). The resulted liposomes were diluted to 10 times volume with PBS, and then ultrafiltered with a 300KDa ultrafiltration tube to remove ethanol. Then the volume was fixed to a certain volume with PBS to give an LNP formulation encapsulating eGFP-mRNA using cationic lipid YK-407/DSPC/cholesterol/DMG-PEG2000 (49:10:39.5:1.5 in molar percentage).
The LNP formulation encapsulating eGFP-mRNA was prepared according to the method in 1, wherein the molar ratios of cationic lipid YK-407 to neutral lipid DSPC were 1:1, 3:1, 3.5:1, 4:1, 4.5:1, 4.9:1, 10:1, 15:1 and 20:1.
The LNP formulation encapsulating eGFP-mRNA was prepared according to the method in 1, wherein the cationic lipid in the carrier was YK-407, and the molar ratios of the polymer-conjugated lipid DMG-PEG2000 to the carrier were 0.5%, 1.5%, 3.5%, 5%, 10% and 15%, respectively.
The LNP formulation encapsulating eGFP-mRNA was prepared according to the method in 1, wherein the molar ratios of cationic lipid YK-407, neutral lipid DSPC, structured lipid cholesterol and polymer-conjugated lipid DMG-PEG2000 were 75:5:15:5, 49:10:39.5:1.5, 45:10:43.5:1.5, 45:25:20:10, 40:10:48.5:1.5, 35:10:53.5:1.5 and 25:5:65:5, respectively.
Cell recovery and passage: 293T cells were recovered, cultured in a culture dish, and passaged to the required number of cells.
Seeding plate: The cells in the culture dish were digested and counted. Cells were spread in a 96-well plate at 10,000 cells per well and in a 12-well plate at 150,000 cells per well. Cells were cultured overnight until the cells adhered to the wall.
Cell transfection test: The LNP formulation containing 1.5 μg of eGFP-mRNA prepared in Example 2 (the cationic lipid in the carrier was YK-407) and the Lipofectamin 3000 formulation of eGFP-mRNA were added respectively to the cell culture medium of the 12-well plate, and further incubated for 24 hours. The transfection efficiency of different samples was then investigated according to the fluorescence intensity by observing with a fluorescence microscope.

293T cells [2] = experiment: Fluorescent detection of Fluc-mRNA (cell transfection efficiency of LNP formulations); format: cell-based
293T cells [3] = experiment: Cell survival rate assay (CCK-8); format: cell-based
Outline: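 293T cells seeded at 10,000 cells/well, cultured overnight, then exposed 24 h to LNP carrying 1.5 μg Fluc-mRNA (cationic:neutral:structured:PEG-type lipid 49:10:39.5:1.5) or Lipofectamine 3000. Viability read by CCK-8, 1 h incubation, absorbance at 450 nm.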

[4] = Particle size and polydispersity index (PDI) of lipid nanoparticles by dynamic light scattering; format: physicochemical
Method: The particle size and polydispersity index (PDI) were determined by dynamic light scattering using Malvern laser particle size analyzer.
10 μL of the liposome solution was weighed, diluted to 1 mL with RNase-free deionized water, and added to the sample pool. Each sample was measured in triplicate. The measurement conditions were: […] scattering angle, and 25° C.

293T cells [5] = experiment: Fluorescent detection of Fluc-mRNA (cell transfection efficiency of LNP formulations); format: cell-based; remark: listed apart in the source

## CCCCCCCCCCCOC(=O)CCCN(CCO)CCN(CCO)CCCCCC(=O)OC(CCCCCCCC)CCCCCCCC [YK-407]
293T cells [1]; 0.5% to 15%
  transfection efficiency at different molar ratios of polymer-conjugated lipid DMG-PEG2000 to carrier: the transfection efficiency was the highest when the molar ratio was 1.5%
293T cells [1]; 75:5:15:5 to 25:5:65:5
  transfection effect at different molar ratios of cationic lipid, neutral lipid, structured lipid and polymer-conjugated lipid: the transfection effect was the best when the ratio was 40:10:48.5:1.5
293T cells [1]; ratios 1:1 to 20:1
  transfection efficiency at different molar ratios of cationic lipid to neutral lipid DSPC: the transfection efficiency was the highest at the molar ratio of cationic lipid to neutral lipid of 4:1
293T cells [1]; ratios 5:1, 10:1, 15:1, 20:1, 30:1 and 35:1
  transfection effect at different weight ratios of carrier to mRNA: the ratio of 15:1 had the best transfection effect
293T cells [2]; LNP with 0.3 μg Fluc-mRNA, 96-well plate, 24 hours
  Relative light unit (RLU): 20385506 RLU
293T cells [2]; ratio vs YK-415
  cell transfection efficiency, times that of YK-415: 68.40
293T cells [2]; ratio vs YK-417
  cell transfection efficiency, times that of YK-417: 173.81 and 170
293T cells [2]; ratio vs YK-418
  cell transfection efficiency, times that of YK-418: 183.24 and 180
293T cells [2]; ratio vs YK-424
  cell transfection efficiency, times that of YK-424: 7.07
293T cells [2]; ratio vs compound 21
  RLU value, times that of compound 21: 13.49 and 13
293T cells [2]; ratio vs compound 23
  RLU value, times that of compound 23: 14.53 and 15
293T cells [3]; LNP with 1.5 μg Fluc-mRNA, 24 hours, CCK-8
  Cell survival rate: 71.37%
293T cells [3]; difference vs ALC-0315
  cell survival rate higher than ALC-0315: 24.16%
293T cells [3]; difference vs HIMA (HHMA)
  cell survival rate higher than HIMA: 7.10%
293T cells [3]; difference vs Lipofectamine 3000
  cell survival rate higher than Lipofectamine 3000: 49.71%
293T cells [3]; difference vs SM-102
  cell survival rate higher than SM-102: 3.47%
293T cells [3]; difference vs YK-404
  cell survival rate higher than YK-404: 29.25%
293T cells [3]; difference vs YK-405
  cell survival rate higher than YK-405: 29.51%
293T cells [3]; difference vs YK-406
  cell survival rate higher than YK-406: 46.41%
293T cells [3]; difference vs YK-408
  cell survival rate higher than YK-408: 29.06%
293T cells [3]; difference vs YK-409
  cell survival rate higher than YK-409: 25.26%
293T cells [3]; difference vs YK-410
  cell survival rate higher than YK-410: 26.45%
293T cells [3]; difference vs YK-411
  cell survival rate higher than YK-411: 55.04%
293T cells [3]; difference vs YK-412
  cell survival rate higher than YK-412: 17.23%
293T cells [3]; difference vs YK-413
  cell survival rate higher than YK-413: 24.17%
293T cells [3]; difference vs YK-414
  cell survival rate higher than YK-414: 42.62%
293T cells [3]; difference vs YK-415
  cell survival rate higher than YK-415: 10.21%
293T cells [3]; difference vs YK-416
  cell survival rate higher than YK-416: 30.40%
293T cells [3]; difference vs YK-417
  cell survival rate higher than YK-417: 50.03%
293T cells [3]; difference vs YK-418
  cell survival rate higher than YK-418: 50.32%
293T cells [3]; difference vs YK-419
  cell survival rate higher than YK-419: 32.45%
293T cells [3]; difference vs YK-420
  cell survival rate higher than YK-420: 35.78%
293T cells [3]; difference vs YK-421
  cell survival rate higher than YK-421: 35.66%
293T cells [3]; difference vs YK-424
  cell survival rate higher than YK-424: 43.44%
293T cells [3]; difference vs compound 21
  cell survival rate higher than compound 21: 3.53%
293T cells [3]; difference vs compound 23
  cell survival rate higher than compound 23: 2.26%
293T cells [3]; rounded summary statement vs YK-411
  cytotoxicity reduced compared with YK-411: 50% and 55%
[4]; LNP formulation of the cationic lipid, 25° C.
  PDI: 16.6%
[4]; LNP formulation of the cationic lipid/DSPC/cholesterol/DMG-PEG2000 49:10:39.5:1.5, 25° C.
  Particle size: 162 nm
293T cells [5]; ratio vs ALC-0315
  RLU value, times that of ALC-0315: 9.31
293T cells [5]; ratio vs HHMA
  RLU value, times that of HHMA: 9.81
293T cells [5]; ratio vs Lipofectamine 3000
  RLU value, times that of Lipofectamine 3000: 16.98
293T cells [5]; ratio vs YK-009
  RLU value, times that of YK-009: 3.96
293T cells [5]; ratio vs YK-405
  RLU value, times that of YK-405: 6.37
293T cells [5]; ratio vs YK-406
  RLU value, times that of YK-406: 260.51
293T cells [5]; ratio vs YK-408
  RLU value, times that of YK-408: 13.83
293T cells [5]; ratio vs YK-409
  RLU value, times that of YK-409: 30.43
293T cells [5]; ratio vs YK-410
  RLU value, times that of YK-410: 49.98
293T cells [5]; ratio vs YK-412
  cell transfection efficiency, times that of YK-412: 6.05
293T cells [5]; ratio vs YK-413
  cell transfection efficiency, times that of YK-413: 14.80
293T cells [5]; ratio vs YK-414
  cell transfection efficiency, times that of YK-414: 45.90
293T cells [5]; ratio vs YK-416
  cell transfection efficiency, times that of YK-416: 5.13
293T cells [5]; ratio vs YK-419
  cell transfection efficiency, times that of YK-419: 6.44
293T cells [5]; ratio vs YK-420
  cell transfection efficiency, times that of YK-420: 5.07
293T cells [5]; ratio vs YK-421
  cell transfection efficiency, times that of YK-421: 43.69
